{"source": "PubChem BioAssay AID602296", "about": "(Broad Institute, 2012)", "note": "Records with an inconclusive call do not appear. Active and inactive are the calls of the source.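 The calls were made as follows: active = fitted activation curve crossing 40% at a concentration no higher than the sample's top valid tested dose; inconclusive = flat fitted curve at 30% to 70% activation, or poor curve fit; inactive = signal decrease, flat curve within 30%, or the rest.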 Peptide text beside a SMILES is read from it. * marks the point of attachment. Boc = CC(C)(C)OC(=O)*; OtBu = CC(C)(C)O*", "data": [{"test_system": "NIH3T3-HGL HSF-1 response element luciferase, 48 h", "test": "sustained heat shock response element induction – cell-based, mouse, luciferase, cherry-pick, dose, confirmation (AID 602296);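 also: test compounds applied by themselves with no MG132 co-treatment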", "values": [{"smiles": "COc1ccc(N=C2NC(=O)/C(=C\\C=C\\c3ccco3)S2)cc1", "AC40": "12.1 µM"}, {"smiles": "Nc1ncnc2c1CCC2", "AC40": "> 26 µM (inactive)"}, {"smiles": "CCN(C(=O)c1cc2c(=O)[nH]c3ccc(C)cc3c2s1)c1ccccc1F", "AC40": "> 26 µM (inactive)"}, {"smiles": "CC(=O)Oc1ccc(Cn2cnc3cc4ccccc4cc32)cc1", "AC40": "14.7 µM"}, {"smiles": "CCc1[nH]nc2c1C1(CCN(C(=O)OCc3ccccc3)CC1)C(C#N)=C(N)O2", "AC40": "> 26 µM (inactive)"}, {"smiles": "COc1ccc(C)cc1Cn1c(S(C)(=O)=O)nc2ccccc21", "AC40": "> 26 µM (inactive)"}, {"smiles": "CCOC(=O)C1CCN(C(=O)c2ccc3c(Cl)c4c(nc3c2)CCCC4)CC1", "AC40": "> 26 µM (inactive)"}, {"smiles": "CC(=O)c1ccc(NC(=S)N2C(C)CCCC2C)cc1", "note": "(configuration not stated)", "AC40": "20.8 µM"}, {"smiles": "COc1ccc(-c2nnc3ccc(SCC(=O)NCC4CCCO4)nn23)cc1", "note": "(configuration not stated)", "AC40": "> 26 µM (inactive)"}, {"smiles": "Cc1ccccc1N1CCN(S(=O)(=O)Cc2ccccc2)CC1", "AC40": "> 26 µM (inactive)"}, {"smiles": "Cn1nnc2c[n+](CC(=O)c3ccc4ccccc4c3)cc(Br)c21", "AC40": "> 26 µM (inactive)"}, {"smiles": "O=C1/C(=C/c2ccc([N+](=O)[O-])cc2)Oc2cc(O)ccc21", "AC40": "> 26 µM (inactive)"}, {"smiles": "Nc1nnc(CSCc2ccccc2Cl)s1", "AC40": "> 26 µM (inactive)"}, {"smiles": "Cc1[nH]c2ccccc2c1/C=C(\\C#N)C(=O)NCC1CCCO1", "note": "(configuration not stated)", "AC40": "9.18 µM"}, {"smiles": "COc1ccc(Cc2nnc(SCC(=O)Nc3ccc(N4CCOCC4)cc3)o2)cc1", "AC40": "> 26 µM (inactive)"}, {"smiles": "CC12CCC3C(CC=C4CC(O)CCC43C)C1C/C(=C\\N1CCCC1)C2=O", "note": "(configuration not stated)", "AC40": "> 26 µM (inactive)"}, {"smiles": "COc1ccc(-c2cc(C(=O)NCc3ccco3)c3ccccc3n2)cc1", "AC40": "> 26 µM (inactive)"}, {"smiles": "c1ccc2c(Nc3nnc(-c4ccncc4)s3)cccc2c1", "AC40": "1.24 µM"}, {"smiles": "CC(C)(C)C(=O)NCC12C=CC(O1)C1C(=O)N(c3ccccc3)C(=O)C12", "note": "(configuration not stated)", "AC40": "> 26 µM (inactive)"}, {"smiles": "Cc1nc2scc(-c3ccc(Cl)cc3)c2c(=O)n1N", "AC40": "> 26 µM (inactive)"}, {"smiles": "CC(=NCc1ccco1)C1=C(O)c2ccccc2C1=O", "AC40": "16.6 µM"}, {"smiles": "CSc1ccccc1-n1nnnc1SCC(=O)NCc1cccs1", "AC40": "> 26 µM (inactive)"}, {"smiles": "Nn1cnnc1N/N=C/c1cc([N+](=O)[O-])c(Cl)cc1Cl", "AC40": "> 26 µM (inactive)"}, {"smiles": "Cc1nc(-c2ccc(Cl)cc2)sc1C(=O)CBr", "AC40": "11.5 µM"}, {"smiles": "CCOC(=O)/C=C/C(=O)N1CCc2ccccc21", "AC40": "> 26 µM (inactive)"}, {"smiles": "N#Cc1ccc(Cl)cc1NC(=O)CNCc1cccs1", "AC40": "> 26 µM (inactive)"}, {"smiles": "N#Cc1ccsc1NC(=O)CN1CCN(S(=O)(=O)c2ccc3ccccc3c2)CC1", "AC40": "> 26 µM (inactive)"}, {"smiles": "CC[C@@]1(O)C(=O)OCc2c1cc1n(c2=O)Cc2cc3c(N)cccc3nc2-1", "AC40": "15.9 µM"}, {"smiles": "Cn1c(=O)oc2cc(S(=O)(=O)N3CCCCC3)ccc21", "AC40": "> 26 µM (inactive)"}, {"smiles": "O=C1c2cccc3c([N+](=O)[O-])ccc(c23)C(=O)N1O", "AC40": "> 26 µM (inactive)"}, {"smiles": "C=CCNC(=S)N/N=C/c1ccc(-c2ccc(Br)cc2)o1", "AC40": "22 µM"}, {"smiles": "Cc1ccc(NN2C(=O)C=C(c3ccccc3)C2=O)cc1", "AC40": "7.33 µM"}, {"smiles": "Cc1cccc(NCc2nc3ccccc3n2C)c1", "AC40": "1.61 µM"}, {"smiles": "Cc1ccc(/C=C2/NC(=O)N(Cc3ccc(Br)cc3)C2=O)o1", "AC40": "> 26 µM (inactive)"}, {"smiles": "Cc1ccc(CN(C)C(=O)C2CCC(=O)N(CCc3ccccc3)C2)o1", "note": "(configuration not stated)", "AC40": "9.82 µM"}, {"smiles": "Cc1cc(C)n2nc(N)c(N=Nc3cccc(Cl)c3)c2n1", "AC40": "> 26 µM (inactive)"}, {"smiles": "CCOC(=O)C(CCOc1cccc(CC)c1)C(=O)OCC", "AC40": "> 26 µM (inactive)"}, {"smiles": "CCCNC(=O)NC(=O)CSc1cccc(C(F)(F)F)c1", "AC40": "13.5 µM"}, {"smiles": "COc1cccc(CNC(=O)Cn2nc(C)c([N+](=O)[O-])c2C)c1", "AC40": "> 26 µM (inactive)"}, {"smiles": "Cc1ccc2oc(C(=O)N3CCC(O)(c4cccc(C(F)(F)F)c4)CC3)c(C)c2c1", "AC40": "9.28 µM"}, {"smiles": "O=C(NCC1CCCO1)c1nn2c(C(F)(F)F)cc(-c3cc(Br)cs3)nc2c1Br", "note": "(configuration not stated)", "AC40": "> 26 µM (inactive)"}, {"smiles": "COCCNC(=S)N/N=C/c1ccc(N2CCOCC2)cc1", "AC40": "> 26 µM (inactive)"}, {"smiles": "C=CCn1c(-c2cc(-c3ccccc3)sc2N)n[nH]c1=S", "AC40": "12.3 µM"}, {"smiles": "Cc1ccc(-n2c(SCC(=O)Nc3cc(S(=O)(=O)N4CCOCC4)ccc3Cl)nc3ccccc3c2=O)cc1", "AC40": "16 µM"}, {"smiles": "Cc1nn(C(C)C(=O)NCCCN2CCCCC2C)c(=O)c2c1sc1ccccc12", "note": "(configuration not stated)", "AC40": "> 26 µM (inactive)"}, {"smiles": "O=C(NC1C(=O)NNC1c1ccccc1)c1ccccc1", "note": "(configuration not stated)", "AC40": "6.88 µM"}, {"smiles": "Cc1ccc(CNc2c(C=O)c(=O)[nH]c3ccccc23)cc1", "AC40": "> 26 µM (inactive)"}, {"smiles": "Cc1nn(C(CC(=O)O)C(=O)O)c(C)c1Br", "note": "(configuration not stated)", "AC40": "> 26 µM (inactive)"}, {"smiles": "COc1cc(OC)c(OC)cc1CN(C)CCc1ccccn1", "AC40": "25.8 µM"}, {"smiles": "C(=N\\N1CCN(Cc2cccc3ccccc23)CC1)/c1cccnc1", "AC40": "> 26 µM (inactive)"}, {"smiles": "COCc1cc(=O)[nH]c(SCCS(=O)(=O)c2ccc(Cl)cc2Cl)n1", "AC40": "> 12 µM (inactive)"}, {"smiles": "O=C(/C=C/Sc1ccccc1)c1ccc(Cl)cc1", "AC40": "4.33 µM"}, {"smiles": "CCOC(=O)C(=O)/C(C#N)=C/Nc1ccccc1", "AC40": "> 26 µM (inactive)"}, {"smiles": "COc1cccc(CN2CC(C(=O)NCc3ccc(C)o3)CCC2=O)c1", "note": "(configuration not stated)", "AC40": "> 26 µM (inactive)"}, {"smiles": "COC(=O)C(Cc1ccc(O)cc1)NC(=O)C(CC(=O)OC(C)(C)C)NC(=O)OC(C)(C)C", "note": "(configuration not stated) (Boc-Asp(OtBu)-Tyr-OMe; configuration not given here)", "AC40": "16.5 µM"}, {"smiles": "CC(C)Nc1nc(Cl)nc(N(C#N)CN2C(=O)c3ccccc3C2=O)n1", "AC40": "> 26 µM (inactive)"}, {"smiles": "COc1ccc(CCNc2oc(-c3ccccc3OC)nc2C#N)cc1", "AC40": "> 26 µM (inactive)"}, {"smiles": "O=C(N/N=C/c1ccncc1)c1cc2ccccc2cc1O", "AC40": "25.2 µM"}, {"smiles": "CCC(C)n1c(SCC(=O)NC(=O)Nc2ccc3c(c2)OCCO3)nc2ccccc2c1=O", "note": "(configuration not stated)", "AC40": "> 26 µM (inactive)"}, {"smiles": "Oc1cccnc1Sc1cccc(C(F)(F)F)c1", "AC40": "> 26 µM (inactive)"}, {"smiles": "O=C(CN1CCOCC1)N(c1ccccc1)c1ccc2ccccc2c1", "AC40": "14.6 µM"}, {"smiles": "CCOC(=O)Nc1ccc(C(=O)Oc2ccccc2)c(O)c1", "AC40": "14.2 µM"}, {"smiles": "S=C(N/N=C/c1cccs1)NC1CC2CCC1C2", "note": "(configuration not stated)", "AC40": "4.41 µM"}, {"smiles": "CCCN1C(=O)c2ccccc2NC1c1ccc(Cl)c(Cl)c1", "note": "(configuration not stated)", "AC40": "> 26 µM (inactive)"}, {"smiles": "O=C(NCc1ccc(N2CCCC2=O)cc1)Nc1ccccc1", "AC40": "> 26 µM (inactive)"}, {"smiles": "Cc1ccc(C(=O)n2cnnc2N)cc1", "AC40": "> 26 µM (inactive)"}, {"smiles": "Cc1ccc2cccc(NC(=O)C(F)(F)F)c2n1", "AC40": "> 26 µM (inactive)"}, {"smiles": "Cc1nonc1OCCNCCNc1ccc([N+](=O)[O-])cc1Cl", "AC40": "> 26 µM (inactive)"}, {"smiles": "C=CC[n+]1c(-c2ccc(OC)cc2)csc1NNC(=O)Nc1ccccc1", "AC40": "> 12 µM (inactive)"}, {"smiles": "CC(C)(C)NC(=O)c1cccc(NC(=O)CSc2ccc(Cl)cc2)c1", "AC40": "> 26 µM (inactive)"}, {"smiles": "CC(=O)Nc1cccc(-n2nnc(SCC(=O)Nc3ccc(F)c(Cl)c3)n2)c1", "AC40": "> 26 µM (inactive)"}, {"smiles": "CCCC(=O)Nc1cc(-c2nn(C)c(=O)c3ccccc23)ccc1OC", "AC40": "> 26 µM (inactive)"}, {"smiles": "O=C(NCc1cccc(F)c1)c1noc2c1CCCC2", "AC40": "6.03 µM"}, {"smiles": "CCCCN(CCCNC(=O)C1CCN(S(=O)(=O)CC)CC1)c1ccccc1", "AC40": "10.4 µM"}, {"smiles": "CN(C)CCNC(=O)/C(=C/c1ccc(-c2cccc(Cl)c2)o1)NC(=O)c1ccccc1", "AC40": "> 26 µM (inactive)"}, {"smiles": "O=C(NC1CCSc2ccccc21)c1ccccc1Cl", "note": "(configuration not stated)", "AC40": "6.46 µM"}, {"smiles": "CCOc1cccc(/C=C/c2ccc3cccc(O)c3n2)c1OC", "AC40": "> 26 µM (inactive)"}]}]}
